Data from PMC6006164, “Natural cyclopeptide RA-V inhibits the NF-κB signaling pathway by targeting TAK1” (Cell Death & Disease, 2018).

Legend:
[1] = tested on: TAK1–TAB2 interaction; assay: Co-immunoprecipitation of TAK1 and TAB2; assay type: cell-based; settings: HEK293T or RAW264.7; 800 nM RA-V 6 h
Method: Fig. 4 RA-V blocks the interaction between TAK1 and TAB2. a RA-V blocked the exogenous TAK1–TAB2 interaction. HEK293T cells were transfected with Flag-TAK1 and HA-TAB2 for 24 h and then incubated with various concentrations of RA-V for 6 h. […] HEK293T cells were transfected with Flag-TAK1 and HA-TRAF6 or HA-TAB1 for 24 h and then incubated with RA-V (800 nM) for 6 h. The cell lysates were immunoprecipitated with HA antibody, and immunoblots were performed with the indicated antibodies. d RA-V blocked the endogenous TAK1–TAB2 interaction. HEK293T (left) or RAW264.7 (right) cells were incubated with 800 nM RA-V for 6 h and stimulated with 10 ng/mL TNF-α for 2 h or 1 μg/mL LPS for 3 h, respectively. The cell lysates were immunoprecipitated with TAK1 antibody or control IgG and then immunoblotted with the indicated antibodies. Each experiment was repeated at least three times
The cell lysates were prepared using radioimmunoprecipitation (RIPA) buffer containing 50 mM Tris-HCl pH 7.4, 150 mM NaCl, 1 mM ethylenediaminetetraacetic acid, 1% Triton X-100, 0.5% deoxycholate, and 0.1% sodium dodecyl sulfate, to which protease inhibitors (Roche) were added. The lysates were incubated with the indicated antibodies before adding 20 μL of Protein A/G agarose for 2 h. After four washes with the same buffer, the immunoprecipitates were boiled in 2 × SDS loading buffer.

[2] = tested on: NF-κB activation; assay: Bioluminescence imaging of NF-κB-luciferase transgenic mice in the endotoxin shock model; assay type: in vivo; settings: RA-V micelles 0.25 mg/kg i.v. 52, 28, 4 h before LPS 10 mg/kg i.p.; n = 4; particularly 2 h after LPS
Method: Fig. 2 RA-V prevents endotoxic shock and inhibits NF-κB activation in vivo. a–c RA-V prevents endotoxic shock in vivo. Mice (n = 6 per group) were intravenously injected with RA-V micelles (0.25 mg/kg body weight) or control micelles 52, 28, and 4 h before an intraperitoneal injection of LPS (10 mg/kg). One hour later, the relative levels of IL-6 and TNF-α mRNAs in the liver were assessed by quantitative RT-PCR (a), the serum IL-6 and TNF-α levels were quantified by ELISA (b), and the expression of p65 and IκBα phosphorylation in the liver were measured by immunoblot analysis c. d RA-V improved animal survival. Mice (n = 20 per group) were intravenously injected with RA-V micelles (0.25 mg/kg body weight) or control micelles 52, 28, and 4 h before intraperitoneal injection of LPS (20 mg/kg). Animal survival was recorded in 2–3 hours intervals. e RA-V inhibits NF-κB activation in vivo. […] The bioluminescent signals from all of the mice were detected and quantified. […]
The bioluminescence imaging of the NF-κB-luciferase transgenic mice was performed using a Xenogen IVIS Spectrum in vivo imaging system (Caliper Life Sciences). […] After 15 min, the in vivo bioluminescence was measured at the indicated times. The bioluminescent signals from all of the mice were detected and quantified.

[3] = tested on: p65 phosphorylation and IκBα phosphorylation; assay: Western blot in HEK293T cells transfected with TRAF2, MyD88 or IKKβ; assay type: cell-based; settings: RA-V 48 h
Method: To determine where RA-V acts in this pathway, TRAF2, MyD88, IKKβ, or p65 plasmid was transiently transfected into HEK293T cells together with the 5 × κB-lucieferase and pTK-Renilla reporters. […] Western blots were performed to investigate the effect of RA-V on NF-κB-associated proteins in HEK293T cells transfected with the TRAF2, MyD88, or IKKβ plasmid. […] Moreover, we used a computational method to predict where RA-V is likely to act in this pathway.
Fig. 3 RA-V represses NF-κB activation upstream of the IKK protein complex. a RA-V inhibited the TRAF2- and MyD88-induced expression of the NF-κB reporter in a dose-dependent manner. The indicated plasmids were transfected into HEK293T cells together with the 5 × κB-luciferase and pTK-Renilla reporters. Twenty-four hours after transfection, the cells were incubated with various concentrations of RA-V for 48 h before luciferase assays were performed. b RA-V inhibited TRAF2- and MyD88-induced p65 phosphorylation and IκBα phosphorylation in a dose-dependent manner. […]
For western blot analysis, the samples were equally subjected to sodium dodecyl sulfate polyacrylamide gel electrophoresis (SDS-PAGE) and transferred to polyvinylidene difluoride membranes (Millipore). […] The protein bands were detected with the SuperSignal West Pico Chemiluminescent Substrate (Pierce).

RA-V
endogenous TNF-α- or LPS-induced TAK1–TAB2 interaction [1]: inhibited the interaction | NF-κB activation, in vivo bioluminescence [2]: inhibited NF-κB activation | p65 and IκBα phosphorylation in cells transfected with IKKβ plasmid [3]: no effect | p65 phosphorylation and IκBα phosphorylation in cells overexpressing TRAF2 or MyD88 [3]: dose-dependently inhibited
